“And” between values parts separate entries of the source, which are not always exact repeats. Equal entries are not always repeated.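 Interpolation was linear, between the two tested concentrations surrounding the appropriate level; five concentrations were tested over 48 hours in 96-well plates. GI50 = concentration required for 50% inhibition of growth.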 The source made the active and inactive calls. No stated cut-off is given here; in the data, active = GI50 up to about 1.1 µM and inactive = higher.
Key:
Assay in all cases: growth of human tumour cells (NCI), 48 h
[1] = tested on: ACHN
[2] = tested on: SF-539
[3] = tested on: SNB-78
[4] = tested on: LXFL 529
[5] = tested on: DMS-114
[6] = tested on: COLO 205
[7] = tested on: TK-10
[8] = tested on: M19-MEL
[9] = tested on: XF498
[10] = tested on: SR
[11] = tested on: SN12C
[12] = tested on: RXF 393
[13] = tested on: HL-60
[14] = tested on: HT-29
[15] = tested on: M14
[16] = tested on: SNB-75
[17] = tested on: UACC-257
[18] = tested on: MCF7
[19] = tested on: NCI/ADR-RES
[20] = tested on: T47D

In the case of `COc1cccc(NC(=O)CC(=O)NNCC(=O)Nc2nnc(-c3ccc(N(CCC#N)S(=O)(=O)c4ccccc4)cc3)s2)c1`, the GI50 [1] is reported as 34.8 µM (inactive), the GI50 [2] is reported as > 100 µM (inactive) and the GI50 [3] is reported as > 100 µM (inactive). For the same compound, the GI50 [4] was 66.4 µM (inactive), the GI50 [5] was 41.6 µM (inactive) and the GI50 [6] was 53 µM (inactive). The GI50 [7] was > 100 µM (inactive), the GI50 [8] was 44.1 µM (inactive) and the GI50 [9] was 73.8 µM (inactive). The GI50 [10] was 28.8 µM (inactive), the GI50 [11] was 89.7 µM (inactive) and the GI50 [12] was 56.4 µM (inactive).

In the case of `COc1ccc(/C(Cl)=C(\C=O)c2ccc(Cl)c(Cl)c2)cc1OC`, the GI50 [1] is reported as 4.56 µM (inactive), the GI50 [2] is reported as 5.89 µM (inactive) and the GI50 [13] is reported as 2.7 µM (inactive). The GI50 [3] was 4.28 µM (inactive), the GI50 [4] was 3.55 µM (inactive) and the GI50 [5] was 12.4 µM (inactive). The GI50 [6] was 16.7 µM (inactive), the GI50 [7] was 19 µM (inactive) and the GI50 [8] was 8.11 µM (inactive). For the same compound, the GI50 [14] was 2.47 µM (inactive), the GI50 [15] was 7.1 µM (inactive) and the GI50 [9] was 3.05 µM (inactive). The GI50 [11] was 4.28 µM (inactive) and the GI50 [16] was 0.294 µM (active).

With `C1CCC(OC2CSC2)OC1` (stereo not given) the GI50 [1] was > 100 µM (inactive), the GI50 [6] was > 100 µM (inactive) and the GI50 [7] was > 100 µM (inactive). The GI50 [17] was > 100 µM (inactive), the GI50 [14] was > 100 µM (inactive) and the GI50 [18] was > 100 µM (inactive). For the same compound, the GI50 [19] was > 100 µM (inactive), the GI50 [15] was > 100 µM (inactive) and the GI50 [20] was > 100 µM (inactive). For the same compound, the GI50 [10] was > 100 µM (inactive), the GI50 [11] was > 100 µM (inactive) and the GI50 [12] was > 100 µM (inactive). For the same compound, the GI50 [16] was > 100 µM (inactive).

For `CCOC(=O)C(C)N1C(=O)c2ccccc2S1(=O)=O` (stereo not given), the GI50 [2] was > 100 µM (inactive), the GI50 [13] was > 100 µM (inactive) and the GI50 [5] was > 100 µM (inactive). For the same compound, the GI50 [6] was > 100 µM (inactive), the GI50 [8] was > 100 µM (inactive) and the GI50 [17] was > 100 µM (inactive). For the same compound, the GI50 [14] was > 100 µM (inactive), the GI50 [18] was > 100 µM (inactive) and the GI50 [19] was > 100 µM (inactive). The GI50 [9] was > 100 µM (inactive), the GI50 [11] was > 100 µM (inactive) and the GI50 [16] was > 100 µM (inactive).

With `Cc1c2cnccc2c(C)c2c1c1ccccc1n2CCCCCCCl` the GI50 [2] was > 50 µM (inactive), the GI50 [13] was 10.1 µM (inactive) and the GI50 [3] was 32.9 µM (inactive). The GI50 [5] was > 40.3 µM (inactive), the GI50 [6] was 28.2 µM (inactive) and the GI50 [8] was 40 µM (inactive). The GI50 [17] was > 33.1 µM (inactive), the GI50 [14] was 29.6 µM (inactive) and the GI50 [18] was > 50 µM (inactive). For the same compound, the GI50 [19] was > 46.3 µM (inactive), the GI50 [9] was 33 µM (inactive) and the GI50 [11] was > 50 µM (inactive). The GI50 [12] was > 50 µM (inactive) and the GI50 [16] was > 31.6 µM (inactive).

For `CN(C)C(=O)OC1C(=O)N(C)c2ccc(Cl)cc2C2(c3ccccc3)N1C2(Cl)Cl` (stereo not given), the GI50 [1] was > 100 µM (inactive), the GI50 [13] was 29.4 µM (inactive) and the GI50 [4] was > 100 µM (inactive). For the same compound, the GI50 [6] was > 100 µM (inactive), the GI50 [7] was 56.5 µM (inactive) and the GI50 [8] was > 100 µM (inactive). The GI50 [17] was 66.8 µM (inactive), the GI50 [14] was > 100 µM (inactive) and the GI50 [15] was > 100 µM (inactive). The GI50 [10] was 49.7 µM (inactive), the GI50 [11] was 59.3 µM (inactive) and the GI50 [12] was 69.2 µM (inactive). The GI50 [16] was 69.3 µM (inactive).

With `COc1cc2c3cc1Oc1c(OC)c(OC)cc4c1C(Cc1ccc(cc1)Oc1cc(ccc1O)CC3N(C)CC2)N(C)CC4` (stereo not given) the GI50 [3] was 20.9 µM (inactive), the GI50 [4] was 13.6 µM (inactive) and the GI50 [5] was 11.9 µM (inactive). For the same compound, the GI50 [7] was 12.1 µM (inactive) and 22.8 µM (inactive), the GI50 [8] was 11.9 µM (inactive) and the GI50 [14] was 2.78 µM (inactive) and 5.09 µM (inactive). The GI50 [18] was 6.44 µM (inactive), the GI50 [19] was 19.3 µM (inactive) and the GI50 [15] was 1.87 µM (inactive) and 2 µM (inactive). For the same compound, the GI50 [20] was 11.3 µM (inactive), the GI50 [10] was 2.78 µM (inactive) and 2.06 µM (inactive) and the GI50 [11] was 21.7 µM (inactive) and 15.1 µM (inactive). The GI50 [12] was 1.29 µM (inactive) and 1.09 µM (active) and the GI50 [16] was 11.1 µM (inactive) and 11.8 µM (inactive).

With `CCCCCCCC/C=C\CCCCCCCCCCCC(=O)O` [ERUCIC ACID] the GI50 [2] was 16.8 µM (inactive), the GI50 [13] was 19.3 µM (inactive) and the GI50 [3] was 44.4 µM (inactive). For the same compound, the GI50 [6] was 20.2 µM (inactive), the GI50 [8] was 26.2 µM (inactive) and the GI50 [17] was 58.2 µM (inactive). For the same compound, the GI50 [14] was 43.8 µM (inactive), the GI50 [18] was 14.9 µM (inactive) and the GI50 [19] was 86.3 µM (inactive). For the same compound, the GI50 [9] was 1.48 µM (inactive), the GI50 [11] was 32.6 µM (inactive) and the GI50 [12] was 8.02 µM (inactive). For the same compound, the GI50 [16] was 37 µM (inactive).

Source: ChEMBL document CHEMBL1201862, “PubChem BioAssay data set” (2004)
